Results published in patent US20100003246A1, “Novel heterocyclic compounds and uses therof” (priority 2008, published 2010).
Values belong to the molecule of their own block, whether it stands above or below them.

How the values were obtained:
Malme3M cells = assay: Cell Titer-Glo cell viability assay, Malme3M; assay type: cell-based; conditions: Homo sapiens, Malme-3M, 120 h; Melanoma cell line Malme3M; 5 days compound incubation; 1000 cells/well
Experimental: (§1) The Cell Titer-Glo® assay (Promega) was used to measure cell viability. Cells were plated into 96-well black walled tissue culture plates in complete growth media. The plates were then incubated under standard growth conditions of 37° C. and 5% CO2 until the cells had attached to the plates (3-6 hours), then compounds were added to the cells. Compounds were serially diluted in DMSO using 3-fold dilutions and then diluted in complete media before being added to the cells (final DMSO concentration on cells was 0.1-0.2%).
(§2) After compound incubation, the cell plates were equilibrated to room temperature, culture media was removed, and 200 uL of Cell Titer-Glo® reagent mix was added to each well (1:1 mixture of Cell Titer-Glo® reagent and complete growth media, equilibrated to room temperature). The plates were shaken for 5-10 minutes, then sealed and luminescence was measured (using Trilux plate reader, Perkin Elmer).
(§3) Analysis of data was done by subtracting the background luminescence value from each data point, then determining the percent inhibition of total growth (as determined by the values for DMSO-treated wells).
(§4) To determine the EC50 for each compound, the data were fit using the Levenburg Marquardt algorithm, represented in the XLfit software as y=A+((B−A)/(1+((C/x)̂D))), the four parameter dose response model 205, where A is the minimum Y value, B is the maximum Y value, C is the Log IC50 and D is the slope.

Capan1 cells = assay: Cell Titer-Glo cell viability assay, Capan1; assay type: cell-based; conditions: Homo sapiens, CAPAN-1, 120 h; Pancreatic cell line Capan1; 5 days compound incubation; 2000 cells/well
Experimental: as §1, §2, §3, §4

b-Raf(V600E) = target: T1, b-Raf(V600E) (Homo sapiens, UniProt P15056, V600E); assay: Raf/Mek Amplified Luminescence Proximity Homogeneous Assay (Alpha Screen), b-Raf(V600E); assay type: biochemical; conditions: mutant b-Raf(V600E), read-out: mut-b-RAF (IC50 in uM)
T1 construct: made in house
In short: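 Active b-Raf(V600E) (~4 pM) pre-incubated 60 min at room temperature with compound and kinase-dead biotinylated Mek (~10 nM) in Tris pH 7.5, MgCl2, BSA, DTT; ATP-started reaction ran 3 h, EDTA-stopped. Phospho-MEK detected by anti-p-MEK AlphaScreen luminescence; IC50 by non-linear regression.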

A375 cells = assay: Cell Titer-Glo cell viability assay, A375; assay type: cell-based; conditions: Homo sapiens, A-375, 72 h; Melanoma cell line A375; 3 days compound incubation; 1000 cells/well
Experimental: as §1, §2, §3, §4

G361 cells = assay: Cell Titer-Glo cell viability assay, G361; assay type: cell-based; conditions: Homo sapiens, G-361, 96 h; Melanoma cell line G361; 4 days compound incubation; 1000 cells/well
Experimental: as §1, §2, §3, §4

PC3MM cells = assay: Cell Titer-Glo cell viability assay, PC3MM; assay type: cell-based; conditions: 120 h; Prostate cell line PC3MM; 5 days compound incubation; 1500 cells/well
Experimental: as §1, §2
(§5) Analysis of data was done by subtracting the background luminescence value from each data point, then determining the percent inhibition of total growth (as determined by the values for DMSO-treated wells). […]

SU86.86 cells = assay: Cell Titer-Glo cell viability assay, SU86.86; assay type: cell-based; conditions: Homo sapiens, SU.86.86, 120 h; Pancreatic cell line SU86.86; 5 days compound incubation; 1000 cells/well
Experimental: as §1, §2, §3, §4

K1 cells = assay: Cell Titer-Glo cell viability assay, K1; assay type: cell-based; conditions: 96 h; Papillary thyroid cell line K1; 4 days compound incubation; 1500 cells/well
Experimental: as §1, §2, §5

T1 sequence (P15056 whole entry V600E): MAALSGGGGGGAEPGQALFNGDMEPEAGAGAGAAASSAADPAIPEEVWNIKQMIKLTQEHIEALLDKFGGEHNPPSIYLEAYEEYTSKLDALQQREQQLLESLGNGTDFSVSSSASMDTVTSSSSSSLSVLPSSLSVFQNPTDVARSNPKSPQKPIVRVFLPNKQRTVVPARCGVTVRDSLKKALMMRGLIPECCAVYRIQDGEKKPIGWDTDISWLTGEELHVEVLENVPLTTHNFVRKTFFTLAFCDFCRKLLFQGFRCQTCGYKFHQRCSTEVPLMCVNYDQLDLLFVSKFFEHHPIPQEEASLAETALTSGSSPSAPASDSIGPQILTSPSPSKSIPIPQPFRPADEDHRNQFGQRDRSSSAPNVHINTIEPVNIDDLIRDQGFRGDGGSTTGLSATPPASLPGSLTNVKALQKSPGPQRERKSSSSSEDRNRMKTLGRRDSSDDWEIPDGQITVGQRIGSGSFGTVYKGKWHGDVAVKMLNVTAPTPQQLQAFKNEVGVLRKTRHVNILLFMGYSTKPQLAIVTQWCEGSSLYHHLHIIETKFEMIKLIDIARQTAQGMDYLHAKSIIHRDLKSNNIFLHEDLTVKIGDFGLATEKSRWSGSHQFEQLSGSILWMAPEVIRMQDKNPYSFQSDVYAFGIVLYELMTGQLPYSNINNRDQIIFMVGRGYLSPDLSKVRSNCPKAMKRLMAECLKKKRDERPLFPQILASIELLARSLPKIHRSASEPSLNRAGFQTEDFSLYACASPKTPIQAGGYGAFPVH

SMILES: COCC(=O)NCCNc1nccc(-c2nc(-c3ccc(F)cc3)[nH]c2-c2cnc(N)c(OC)c2)n1 [Compound 81, N-(2-(4-(5-(6-amino-5-methoxypyridin-3-yl)-2-(4-fluorophenyl)-1H-imidazol-4-yl)pyrimidin-2-ylamino)ethyl)-2-methoxyacetamide]
EC50 (Malme3M cells): 194 nM | EC50 (Capan1 cells): 319 nM | IC50 (b-Raf(V600E)): 0.0001 µM | EC50 (A375 cells): 547 nM | EC50 (G361 cells): 305 nM

SMILES: COc1cc(Nc2nccc(-c3[nH]c(C(C)(C)C)nc3-c3cnc(N)c(OC)n3)n2)ccn1 [Compound 9, 4-(4-(5-amino-6-methoxypyrazin-2-yl)-2-tert-butyl-1H-imidazol-5-yl)-N-(2-methoxypyridin-4-yl)pyrimidin-2-amine]
EC50 (PC3MM cells): 250 nM

SMILES: COCC(=O)NCCNc1nccc(-c2[nH]c(-c3ccc(C(F)(F)F)cc3)nc2-c2cnc(N)c(OC)c2)n1 [Compound 85, N-(2-(4-(4-(6-amino-5-methoxypyridin-3-yl)-2-(4-(trifluoromethyl)phenyl)-1H-imidazol-5-yl)pyrimidin-2-ylamino)ethyl)-2-methoxyacetamide]
EC50 (Capan1 cells): 163 nM | IC50 (b-Raf(V600E)): 0.0002 µM | EC50 (SU86.86 cells): 111 nM

SMILES: COc1cc(-c2nc(-c3ccc(F)cc3)[nH]c2-c2ccncc2)cnc1N [Compound 66, 5-(2-(4-fluorophenyl)-5-(pyridin-4-yl)-1H-imidazol-4-yl)-3-methoxypyridin-2-amine]
EC50 (Malme3M cells): 816 nM | IC50 (b-Raf(V600E)): 0.0006 µM | EC50 (A375 cells): 623 nM | EC50 (G361 cells): 1020 nM

SMILES: COCC(=O)N[C@@H](C)CNc1nccc(-c2[nH]c(-c3ccc(F)cc3)nc2-c2cnc(N)c(OC)n2)n1 [Compound 5, (S)-N-(1-(4-(4-(5-amino-6-methoxypyrazin-2-yl)-2-(4-fluorophenyl)-1H-imidazol-5-yl)pyrimidin-2-ylamino)propan-2-yl)-2-methoxyacetamide]
EC50 (K1 cells): 892 nM | EC50 (SU86.86 cells): 354 nM

SMILES: COc1cc(-c2[nH]c(-c3ccccc3)nc2-c2ccncc2)cnc1N [Compound 1, 3-methoxy-5-(2-phenyl-4-(pyridin-4-yl)-1H-imidazol-5-yl)pyridin-2-amine]
EC50 (Malme3M cells): 429 nM | EC50 (Capan1 cells): 570 nM | EC50 (A375 cells): 376 nM | EC50 (G361 cells): 70 nM | EC50 (SU86.86 cells): 116 nM

SMILES: COc1cc(-c2[nH]c(-c3ccc(F)cc3F)nc2-c2ccncc2)cnc1N [Compound 106, 5-(2-(2,4-difluorophenyl)-4-(pyridin-4-yl)-1H-imidazol-5-yl)-3-methoxypyridin-2-amine]
EC50 (Capan1 cells): 674 nM | IC50 (b-Raf(V600E)): 0.001 µM | EC50 (SU86.86 cells): 118 nM

SMILES: COc1cc(-c2[nH]c(-c3cccc(C(N)=O)c3)nc2-c2ccncc2)cnc1N [Compound 122, 3-(5-(6-amino-5-methoxypyridin-3-yl)-4-(pyridin-4-yl)-1H-imidazol-2-yl)benzamide]
IC50 (b-Raf(V600E)): 0.0021 µM

SMILES: COc1cc(-c2[nH]c(C)nc2-c2ccncc2)cnc1N [Compound 51, 3-methoxy-5-(2-methyl-4-(pyridin-4-yl)-1H-imidazol-5-yl)pyridin-2-amine]
IC50 (b-Raf(V600E)): 0.0196 µM

SMILES: COc1cc(-c2nc(-c3ccccc3)[nH]c2-c2ccnc(NC(C)=O)c2)cnc1N [Compound 82, N-(4-(4-(6-amino-5-methoxypyridin-3-yl)-2-phenyl-1H-imidazol-5-yl)pyridin-2-yl)acetamide]
IC50 (b-Raf(V600E)): 0.002 µM

SMILES: COc1cc(-c2[nH]c(-c3cc(C(=O)N(C)C)ccc3F)nc2-c2ccncc2)cnc1N [Compound 124, 3-(5-(6-amino-5-methoxypyridin-3-yl)-4-(pyridin-4-yl)-1H-imidazol-2-yl)-4-fluoro-N,N-dimethylbenzamide]
IC50 (b-Raf(V600E)): 0.0166 µM

SMILES: Fc1ccc(-c2nc(-c3ccncc3)c(-c3ccc4ncnn4c3)[nH]2)cc1 [Compound 130, 6-(2-(4-fluorophenyl)-4-(pyridin-4-yl)-1H-imidazol-5-yl)-[1,2,4]triazolo[1,5-a]pyridine]
IC50 (b-Raf(V600E)): 0.416 µM

SMILES: COCC(=O)N1CCC[C@@H](Nc2nccc(-c3nc(-c4ccc(C(F)(F)F)cc4)[nH]c3-c3cnc(N)c(OC)c3)n2)C1 [Compound 97, (R)-1-(3-(4-(5-(6-amino-5-methoxypyridin-3-yl)-2-(4-(trifluoromethyl)phenyl)-1H-imidazol-4-yl)pyrimidin-2-ylamino)piperidin-1-yl)-2-methoxyethanone]
IC50 (b-Raf(V600E)): 0.031 µM

SMILES: COc1cc(-c2nc(-c3ccccc3)[nH]c2-c2ccnc(N)n2)cnc1N [Compound 73, 4-(4-(6-amino-5-methoxypyridin-3-yl)-2-phenyl-1H-imidazol-5-yl)pyrimidin-2-amine]
IC50 (b-Raf(V600E)): 0.0011 µM

SMILES: COc1cc(-c2nc(-c3ccccc3)[nH]c2-c2ccnc(N(C)C)n2)cnc1N [Compound 63, 4-(4-(6-amino-5-methoxypyridin-3-yl)-2-phenyl-1H-imidazol-5-yl)-N,N-dimethylpyrimidin-2-amine]
IC50 (b-Raf(V600E)): 0.641 µM

SMILES: COc1cc(-c2nc(-c3ccccc3)[nH]c2-c2ccnc(NC[C@@H](C)O)n2)cnc1N [Compound 75, (R)-1-(4-(4-(6-amino-5-methoxypyridin-3-yl)-2-phenyl-1H-imidazol-5-yl)pyrimidin-2-ylamino)propan-2-ol]
IC50 (b-Raf(V600E)): 0.0011 µM

SMILES: COc1ccc(-c2nc(-c3ccncc3)c(-c3cnc(N)c(OC)c3)[nH]2)cc1OC [Compound 107, 5-(2-(3,4-dimethoxyphenyl)-4-(pyridin-4-yl)-1H-imidazol-5-yl)-3-methoxypyridin-2-amine]
IC50 (b-Raf(V600E)): 0.0007 µM

More lines, main results first:

IC50 (b-Raf(V600E)): 0.0003 µM
SMILES: COCC(=O)N[C@@H](C)CNc1nccc(-c2[nH]c(-c3ccc(C(F)(F)F)cc3)nc2-c2cnc(N)c(OC)c2)n1 [Compound 198, (S)-N-(1-(4-(4-(6-amino-5-methoxypyridin-3-yl)-2-(4-(trifluoromethyl)phenyl)-1H-imidazol-5-yl)pyrimidin-2-ylamino)propan-2-yl)-2-methoxyacetamide]
EC50 (K1 cells): 787 nM

IC50 (b-Raf(V600E)): 0.0001 µM | EC50 (PC3MM cells): 83 nM
SMILES: COCC(=O)N[C@@H](C)CNc1nccc(-c2[nH]c(-c3ccc(F)cc3)nc2-c2cnc(N)c(OC)c2)n1 [Compound 163, (S)-N-(1-(4-(4-(6-amino-5-methoxypyridin-3-yl)-2-(4-fluorophenyl)-1H-imidazol-5-yl)pyrimidin-2-ylamino)propan-2-yl)-2-methoxyacetamide]
EC50 (Capan1 cells): 535 nM | EC50 (SU86.86 cells): 28 nM

IC50 (b-Raf(V600E)): 0.0001 µM
SMILES: [2H]C([2H])([2H])Oc1nc(-c2nc(C(C)(C)C)[nH]c2-c2ccnc(NC[C@H](C)NC(=O)OC)n2)cnc1N [Compound 261, (S)-methyl 1-(4-(4-(5-amino-6-(D3-methoxy)pyrazin-2-yl)-2-tert-butyl-1H-imidazol-5-yl)pyrimidin-2-ylamino)propan-2-ylcarbamate]

IC50 (b-Raf(V600E)): 0.0055 µM
SMILES: COc1cc(-c2nc(C3CCOCC3)[nH]c2-c2ccncc2)cnc1N [Compound 162, 3-methoxy-5-(5-(pyridin-4-yl)-2-(tetrahydro-2H-pyran-4-yl)-1H-imidazol-4-yl)pyridin-2-amine]

IC50 (b-Raf(V600E)): 0.0015 µM
SMILES: COc1nc(-c2nc(C(C)(C)C)[nH]c2-c2ccnc(NC[C@H](C)NC(=O)OCC(C)(C)C)n2)c(C)nc1N [Compound 259, (S)-neopentyl 1-(4-(4-(5-amino-6-methoxy-3-methylpyrazin-2-yl)-2-tert-butyl-1H-imidazol-5-yl)pyrimidin-2-ylamino)propan-2-ylcarbamate]

IC50 (b-Raf(V600E)): 0.0003 µM
SMILES: COc1cc(-c2nc(C(C)(C)C)[nH]c2-c2ccnc(Nc3ccc(N4C[C@@H](C)O[C@@H](C)C4)nc3)n2)cnc1N [Compound 184, 4-(4-(6-amino-5-methoxypyridin-3-yl)-2-tert-butyl-1H-imidazol-5-yl)-N-(6-((2R,6S)-2,6-dimethylmorpholino)-pyridin-3-yl)pyrimidin-2-amine]

IC50 (b-Raf(V600E)): 0.0099 µM
SMILES: CC[C@@H](C)Nc1nccc(-c2nc(-c3ccc(F)cc3)[nH]c2-c2cnc(N)c(OC)c2)n1 [Compound 181, (R)-4-(5-(6-amino-5-methoxypyridin-3-yl)-2-(4-fluorophenyl)-1H-imidazol-4-yl)-N-sec-butylpyrimidin-2-amine]

IC50 (b-Raf(V600E)): 0.012 µM
SMILES: COCC(=O)N[C@H](C)CNc1nccc(-c2[nH]c(-c3ccc(F)cc3)nc2-c2cnc(N)c(OC)n2)n1 [Compound 249, (R)-N-(1-(4-(4-(5-amino-6-methoxypyrazin-2-yl)-2-(4-fluorophenyl)-1H-imidazol-5-yl)pyrimidin-2-ylamino)propan-2-yl)-2-methoxyacetamide]
